Ends that are not written are not given here.
Tests used:
collagen type I gels = biological target: T1, collagen type I gels (Bos taurus, UniProt P02453+P02465); test: Viscoelastic characterization of collagen type I gels (rheometer); assay type: biochemical; details: varying ratios of collagen to additive, vs untreated collagen
T1 construct: purchased Inamed, Freemont, Calif; Nutragen
Protocol: Gels were made with Nutragen collagen (Inamed, Freemont, Calif.) at a final concentration of 4 mg/mL collagen. Nutragen stock is 6.4 mg/mL in 10 mM HCl. Gel preparation was performed on ice, and fresh samples were made before each test. The collagen solution was adjusted to physiologic pH and salt concentration, by adding appropriate volumes of 10×PBS (phosphate buffered saline), 1×PBS, and 1M NaOH. For most experiments, samples of DS, decorin, DS-SILY, or DS-Dc13 were added at a 10:1 collagen:treatment molar ratio by a final 1×PBS addition (equal volumes across treatments) in which the test samples were dissolved at appropriate concentrations. In this way, samples are constantly kept at pH 7.4 and physiologic salt concentration. Collagen-alone samples received a 1×PBS addition with no sample dissolved. Fibrillogenesis will be induced by incubating neutralized collagen solutions at 37° C. overnight in a humidified chamber to avoid dehydration. Gel solutions with collagen:treatment molar ratios of other than 10:1 were prepared similarly. Collagen gels were prepared as described in EXAMPLE 16 and prior to heating, 200 μL of each treatment were pipetted onto the wettable surface of hydrophobically printed slides (Tekdon). The PTFE printing restricted gels to the 20 mm diameter wettable region. Gels were formed in a humidified incubator at 37° C. overnight prior to mechanical testing. […]

Human dermal fibroblasts = test: TGF-β1 production by human dermal fibroblasts (ELISA); assay type: cell-based; details: 1.4 μM treatment, 48 hours
Protocol: Human dermal fibroblasts (Cascade Biologics) were seeded onto 96-well tissue culture polystyrene plates at a seeding density of 1.83×10^3 cells/well. Cells adhered overnight and cell medium was aspirated. 100 μL/well of cell medium containing a final concentration of 1.4 μM treatment delivered from a concentrated solution of treatment in 1×PBS was added to the cells. After 48 hours, cell medium was removed and frozen at −80 C until further testing. TGF-β1 was measured by ELISA using a kit and protocol from R&D Systems.

HCA SMCs = test: Measurement of elastin (Fastin assay) in cell-seeded collagen gels; assay type: cell-based, human; details: gels cultured for 10 days
Protocol: Collagen gels seeded with HCA SMCs were prepared as described in EXAMPLE 30. Differentiation medium was changed every three days and gels were cultured for 10 days. Collagen gels containing no cells were used as a control. Gels were rinsed in 1×PBS overnight to remove serum protein, and gels were tested for elastin content using the Fastin elastin assay per manufacturers protocol (Biocolor, County […].). Briefly, gels were solubilized in 0.25 M oxalic acid by incubating at 100° C. for 1 hr. Elastin was precipitated and samples were then centrifuged at 11,000×g for 10 min. The solubilized collagen supernatant was removed and the elastin pellet was stained by Fastin Dye Reagent for 90 min at room temperature. Samples were centrifuged at 11,000×g for 10 min and unbound dye in the supernatant was removed. Dye from the elastin pellets was released by the Fastin Dye Dissociation Reagent, and 100 μL samples were transferred to a 96-well plate (Costar). Absorbance was measured at 513 nm, and elastin content was calculated from an α-elastin standard curve.

collagen I = biological target: T2, collagen I (Bos taurus, UniProt P02453+P02465); test: Cryo-SEM measurements on collagen I, fibril diameter; assay type: biochemical; details: 4 mg/mL collagen, 10:1 collagen:treatment, cryo-SEM 20,000×
T2 construct: purchased Inamed, Freemont, Calif; Nutragen
T2 sequence (P02453 162-1217 limits assumed): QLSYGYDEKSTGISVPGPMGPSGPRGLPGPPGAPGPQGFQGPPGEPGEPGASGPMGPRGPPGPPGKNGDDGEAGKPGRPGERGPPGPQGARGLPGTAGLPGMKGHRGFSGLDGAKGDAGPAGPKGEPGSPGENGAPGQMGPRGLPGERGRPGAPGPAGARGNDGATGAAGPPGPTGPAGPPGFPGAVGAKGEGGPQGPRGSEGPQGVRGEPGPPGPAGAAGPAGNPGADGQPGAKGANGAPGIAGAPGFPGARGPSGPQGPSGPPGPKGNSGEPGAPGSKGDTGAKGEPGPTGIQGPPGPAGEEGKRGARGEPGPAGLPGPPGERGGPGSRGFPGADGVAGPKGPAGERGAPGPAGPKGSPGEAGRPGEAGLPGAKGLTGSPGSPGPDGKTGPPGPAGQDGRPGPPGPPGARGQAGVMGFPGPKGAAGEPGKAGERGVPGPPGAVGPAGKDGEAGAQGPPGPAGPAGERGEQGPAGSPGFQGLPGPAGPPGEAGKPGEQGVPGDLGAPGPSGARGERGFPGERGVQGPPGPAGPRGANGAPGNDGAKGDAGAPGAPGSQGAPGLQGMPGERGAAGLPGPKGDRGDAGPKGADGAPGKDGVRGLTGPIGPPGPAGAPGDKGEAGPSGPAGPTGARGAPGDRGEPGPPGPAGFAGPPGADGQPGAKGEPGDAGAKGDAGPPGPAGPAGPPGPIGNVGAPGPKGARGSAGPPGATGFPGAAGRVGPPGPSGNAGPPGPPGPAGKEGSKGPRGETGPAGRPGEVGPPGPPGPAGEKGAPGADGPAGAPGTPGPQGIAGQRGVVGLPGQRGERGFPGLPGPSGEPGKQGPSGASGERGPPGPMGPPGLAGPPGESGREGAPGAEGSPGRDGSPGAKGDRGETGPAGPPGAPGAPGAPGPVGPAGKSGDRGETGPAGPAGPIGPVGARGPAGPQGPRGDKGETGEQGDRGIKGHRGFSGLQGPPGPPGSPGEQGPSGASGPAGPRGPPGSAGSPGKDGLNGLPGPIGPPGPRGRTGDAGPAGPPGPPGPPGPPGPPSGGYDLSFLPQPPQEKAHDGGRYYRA
T2 sequence (P02465 80-1117 limits assumed): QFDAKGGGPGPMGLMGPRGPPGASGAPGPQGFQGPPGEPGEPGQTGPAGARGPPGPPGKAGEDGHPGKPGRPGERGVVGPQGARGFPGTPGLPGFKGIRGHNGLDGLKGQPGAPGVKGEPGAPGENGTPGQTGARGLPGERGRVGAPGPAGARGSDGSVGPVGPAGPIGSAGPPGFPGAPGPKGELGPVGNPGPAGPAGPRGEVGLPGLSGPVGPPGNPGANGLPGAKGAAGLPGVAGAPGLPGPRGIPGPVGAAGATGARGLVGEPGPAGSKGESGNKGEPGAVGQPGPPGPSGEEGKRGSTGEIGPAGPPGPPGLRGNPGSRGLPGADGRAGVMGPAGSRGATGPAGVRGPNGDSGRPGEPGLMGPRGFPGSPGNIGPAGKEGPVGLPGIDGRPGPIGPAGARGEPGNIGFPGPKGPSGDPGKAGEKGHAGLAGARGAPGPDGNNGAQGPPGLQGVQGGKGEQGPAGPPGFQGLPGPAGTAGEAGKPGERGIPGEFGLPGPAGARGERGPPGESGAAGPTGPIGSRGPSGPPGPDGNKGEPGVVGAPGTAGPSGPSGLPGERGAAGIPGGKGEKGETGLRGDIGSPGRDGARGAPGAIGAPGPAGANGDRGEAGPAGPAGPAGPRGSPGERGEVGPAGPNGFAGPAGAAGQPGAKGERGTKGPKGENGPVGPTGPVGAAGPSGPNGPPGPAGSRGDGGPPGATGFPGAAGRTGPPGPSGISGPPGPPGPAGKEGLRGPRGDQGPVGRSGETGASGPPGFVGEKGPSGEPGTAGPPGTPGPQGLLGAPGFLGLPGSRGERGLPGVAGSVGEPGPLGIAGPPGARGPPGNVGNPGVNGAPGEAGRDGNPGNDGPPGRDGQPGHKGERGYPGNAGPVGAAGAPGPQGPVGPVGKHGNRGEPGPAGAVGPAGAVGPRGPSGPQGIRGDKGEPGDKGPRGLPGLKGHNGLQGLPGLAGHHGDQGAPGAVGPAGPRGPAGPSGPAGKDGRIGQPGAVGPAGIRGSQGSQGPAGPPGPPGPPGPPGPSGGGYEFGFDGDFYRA
Protocol: (§1) Gels were made with Nutragen collagen (Inamed, Freemont, Calif.) at a final concentration of 4 mg/mL collagen. Nutragen stock is 6.4 mg/mL in 10 mM HCl. Gel preparation was performed on ice, and fresh samples were made before each test. The collagen solution was adjusted to physiologic pH and salt concentration, by adding appropriate volumes of 10×PBS (phosphate buffered saline), 1×PBS, and 1M NaOH. For most experiments, samples of DS, decorin, DS-SILY, or DS-Dc13 were added at a 10:1 collagen:treatment molar ratio by a final 1×PBS addition (equal volumes across treatments) in which the test samples were dissolved at appropriate concentrations. In this way, samples are constantly kept at pH 7.4 and physiologic salt concentration. Collagen-alone samples received a 1×PBS addition with no sample dissolved. Fibrillogenesis will be induced by incubating neutralized collagen solutions at 37° C. overnight in a humidified chamber to avoid dehydration. Gel solutions with collagen:treatment molar ratios of other than 10:1 were prepared similarly.
Gels for cryo-SEM were formed, as in EXAMPLE 16, directly on the SEM stage and incubated at 37° C. overnight. The stages were then secured in a cryo-holder and plunged into liquid nitrogen slush. Samples were then transferred to a Gatan Alto 2500 pre-chamber cooled to −170° C. under vacuum. A free-break surface was created with a cooled scalpel, and each sample evaporated under sublimation conditions for 20 min. The sample was coated by platinum sputter coating for 120 s. Samples were transferred to the cryo-stage at −130° C. and regions with similar orientation were imaged for comparison across treatments. Analysis of the images was performed to determine the fibril diameter distribution, presented in histograms adjacent the corresponding image in FIG. 14, and average fibril diameter, FIG. 17 an 18;. Fibril diameter was calculated using ImageJ software (NIH) measuring individual fibrils by hand (drawing a line across fibrils and measuring its length after properly setting the scale). At least 45 independent fibril measurement were recorded for average fibril diameter calculations.

collagen gels = biological target: T3, collagen gels (Bos taurus, UniProt P02453+P02465); test: Cryo-SEM measurement of fibril density; assay type: biochemical; details: 10:1 molar ratio, cryo-SEM 10,000×
T3 construct: purchased Inamed, Freemont, Calif; Nutragen
T3 sequence (P02453 162-1217 limits assumed): as the sequence (P02453 162-1217 limits assumed) above
T3 sequence (P02465 80-1117 limits assumed): as the sequence (P02465 80-1117 limits assumed) above
Protocol: Collagen gels were formed in the presence of each additive at a 10:1 molar ratio, as described in EXAMPLE 16, directly on the SEM stage, processed, and imaged as described. Images at 10,000× were analyzed for fibril density calculations. Images were converted to 8-bit black and white, and threshold values for each image were determined using ImageJ software (NIH). The threshold was defined as the value where all visible fibrils are white, and all void space is black. The ratio of white to black area was calculated using MatLab software. All measurements were taken in triplicate and thresholds were determined by an observer blinded to the treatment.

[1] = tested on: Human coronary artery smooth muscle cells (HCA SMC); test: Gel compaction by smooth muscle cells in collagen gels; assay type: cell-based
Protocol: Human coronary artery smooth muscle cells (HCA SMC) (Cascade Biologics) were cultured in growth medium (Medium 231 supplemented with smooth muscle growth factor). Cells from passage 3 were used for all experiments. Differentiation medium (Medium 231 supplemented with 1% FBS and 1× pen/strep) was used for all experiments unless otherwise noted.
Collagen gels were prepared with each additive as described with the exception that the 1×PBS example addition was omitted to accommodate the addition of cells in media. After incubating on ice for 30 min, HCA SMCs in differentiation medium were added to the gel solutions to a final concentration of 1×10^6 cells/mL. Gels were formed in quadruplicate in 48-well non-tissue culture treated plates (Costar) for 6 hrs before adding 500 μL/well differentiation medium. Gels were freed from the well edges after 24 hrs. Medium was changed every 2-3 days and images for compaction were taken at the same time points using a Gel Doc System (Bio-Rad). The cross-sectional area of circular gels correlating to degree of compaction was determined using ImageJ software (NIH). Gels containing no cells were used as a negative control and cells in collagen gels absent additive were used as a positive control. […] By day 10 all gels had compacted to approximately 10% of the original gel area, and differences between additives were small.

collagen [2] = biological target: T4, collagen (Bos taurus, UniProt P02453+P02465); test: Fibrillogenesis turbidity assay (absorbance at 313 nm); assay type: biochemical
T4 construct: purchased Inamed, Freemont, Calif; Nutragen
T4 sequence (P02453 162-1217 limits assumed): as the sequence (P02453 162-1217 limits assumed) above
T4 sequence (P02465 80-1117 limits assumed): as the sequence (P02465 80-1117 limits assumed) above
Protocol: as §1
Collagen fibrillogenesis was monitored by measuring turbidity related absorbance at 313 nm providing information on rate of fibrillogenesis and fibril diameter. Gel solutions were prepared as described in EXAMPLE 16 (4 mg/mL collagen, 10:1 collagen:treatment, unless otherwise indicated) and 50 uL/well were added at 4° C. to a 384-well plate. The plate was kept at 4° C. for 4 hours before initiating fibril formation. A SpectraMax M5 at 37° C. was used to measure absorbance at 313 nm at 30 s intervals for 6 hours.
A fibrillogenesis assay as described for DS-SILY, EXAMPLE 19, performed with the conjugate DS-Dc13.

[3] = tested on: Human aortic smooth muscle cells; test: Collagen remodeling: hydroxyproline content in medium of cell-seeded collagen gels; assay type: cell-based; details: vs collagen alone; cultures up to 30 days
Protocol: Following a method by Grassl, et al. (Grassl, et al., Journal of Biomedical Materials Research 2002, 60, (4), 607-612), which is herein incorporated in its entirety, collagen gels with or without synthetic PG mimics were formed as described in EXAMPLE 16. Human aortic smooth muscle cells (Cascade Biologics, Portland, Oreg.) were seeded within collagen gels by adding 4×10^6 cells/mL to the neutralized collagen solution prior to incubation. The cell-collagen solutions were pipetted into an 8-well Lab-Tek chamber slide and incubated in a humidified 37° C. and 5% CO2 incubator. After gelation, the cell-collagen gels will be covered with 1 mL Medium 231 as prescribed by Cascade. Every 3-4 days, the medium was removed from the samples and the hydroxyproline content measured by a standard hydroxyproline assay (Reddy, 1996).
To measure degraded collagen in the supernatant medium, the sample was lyophilized, the sample hydrolyzed in 2M NaOH at 120° C. for 20 min. After cooling, free hydroxyproline was oxidized by adding chloramine-T (Sigma) and reacting for 25 min at room temperature. Ehrlich's aldehyde reagent (Sigma) was added and allowed to react for 20 min at 65° C. and followed by reading the absorbance at 550 nm on an M-5 spectrophotometer (Molecular Devices). […] Cultures were incubated for up to 30 days and three samples of each treatment measured. […]

collagen [4] = test: SILY binding to collagen (Biacore surface plasmon resonance)
Protocol: Biacore studies were performed on a Biacore 2000 using a CM-3 chip (Biacore, Inc., Piscataway, N.J.). The CM-3 chip is coated with covalently attached carboxymethylated dextran, which allows for attachment of the substrate collagen via free amine groups. Flow cells (FCs) 1 and 2 were used, with FC-1 as the reference cell and FC-2 as the collagen immobilized cell. Each FC was activated with EDC-NHS, and 1500RU of collagen was immobilized on FC-2 by flowing 1mg/mL collagen in sodium acetate, pH 4, buffer at 5 μL/min for 10 min. Unreacted NHS-ester sites were capped with ethanolamine; the control FC-1 was activated and capped with ethanolamin.
To determine peptide binding affinity, SILY was dissolved in 1× HBS-EP buffer (Biacore) at varying concentrations from 100 uM to 1.5 μm in 2-fold dilutions. […] The first 10 injections were buffer injections, which help to prime the system, followed by randomized sample injections, run in triplicate. Analysis was performed using BIAevaluation software (Biacore).

T1 sequence (P02453 162-1217 limits assumed): as the sequence (P02453 162-1217 limits assumed) above
T1 sequence (P02465 80-1117 limits assumed): as the sequence (P02465 80-1117 limits assumed) above

reversibility of binding to collagen (collagen [4]; association/disassociation curves, FIG. 2)	Kd (collagen [4]; calculated from the on-off binding kinetics, collagen immobilized on CM-3 chip) [µM]	Substance	stiffness of collagen gel (storage modulus G') (collagen type I gels)	TGF-β1 in cell medium (Human dermal fibroblasts)	elastin production (HCA SMCs)	average fibril diameter (collagen I)	fibril density (ratio of fibril containing area to void space) (collagen gels)	gel compaction at early time points ([1]; Days 3 and 5)	gel compaction ([1]; day 10)	rate of fibrillogenesis (collagen [2]; 4 mg/mL collagen, 10:1 collagen:treatment unless otherwise indicated)	fibrillogenesis and overall absorbance (collagen [2]; 1:1 or 10:1 collagen to treatment, FIG. 12)	collagen degradation measured by hydroxyproline content in cell medium [3]
		dermatan sulfate [reference compound]	increase the stiffness of the resulting collagen gel over untreated collagen	significantly decreased TGF-β1	significantly decreased elastin production over untreated collagen							
		DS-Dc13: dermatan sulfate conjugated via PDPH to Dc13 peptide, molar ratio about 1 (SYIRIADTNITGC; also: dermatan sulfate conjugate via PDPH, molar ratio about 1, site not given here)	increase the stiffness of the resulting collagen gel over untreated collagen		significantly decreased elastin production over untreated collagen	significant decrease in average fibril diameter	not significant compared to collagen	significantly compacted more than gels made of collagen alone or collagen with dermatan sulfate	slightly, but significantly, less compact than gels treated with decorin or collagen	decrease the rate of fibrillogenesis	delays fibrillogenesis and decreases overall absorbance in a dose-dependent manner	
binds reversibly with collagen	1.2	RRANAALKAGELYKSILYGC		significantly decreased TGF-β1		significant decrease in average fibril diameter	significantly greater fibril density					greater collagen degradation compared to collagen alone

From patent US20170283458A1, “COLLAGEN-BINDING SYNTHETIC PEPTIDOGLYCANS FOR WOUND HEALING” (Symic Biomedical, Inc., priority 2009, published 2017)
